According to patent US7271198B2, “Method of treating autoimmune diseases” (Wake Forest University, priority 2000, dated 2007):

How the values were obtained:
TGF-β1 mRNA = assay: PCR of TGF-β1 mRNA in SLE and control T cells / PBMCs; format: cell-based, human; conditions: SLE PBMCs exposed to TSA and SAHA (summary statement)
Method: (§1) Gene expression of TGF-β1 was tested to determine if the gene expression is suppressed by deacetylation of histones in SLE. In this determination, SLE PBMCs or isolated T cells were treated with the histone deacetylase inhibitors (HDIs), TSA or SAHA, for 18hr. […] Subsequently, semi-quantitative PCR was performed to determine the amounts of […] transcripts in SLE and control T cells treated with vehicle or TSA (1000 ng/ml). […] There is no change in GAPDH transcript in normal and SLE T cells after treatment of HDIs. Increased TGF-β1 transcript was associated with a subsequent increase in TGF-β1 protein secretion by SLE PBMCs. When compared to vehicle treated PBMCs, total TGF-β1 protein in culture supernatants from SLE PBMCs increased by approximately 30%. In contrast, there was no increase in total TGF-β1 secretion in TSA treated cells in normal healthy controls. Similar results may be obtained by SAHA.

TGF-β1 protein = TGF-β1 protein secretion by PBMCs; format: cell-based, human; conditions: SLE PBMCs exposed to TSA and SAHA (summary statement)
Method: as §1

[1] = test system: acetylated H3 and H4 histones; assay: Western immunoblot of acetylated H3 and H4 histones in SLE PBMCs; format: cell-based, human; conditions: 1000 ng/ml TSA or 20 μM SAHA, 18 hr
Method: The effect of TSA and SAHA was examined to determine if HDIs induce accumulation of acetylated histones in SLE PBMCs on the level of histone acetylation in SLE PBMCs. Following culture of PBMCs in the presence of vehicle, 1000 ng/ml TSA or 20 μM SAHA for 18 hr, histones were isolated.

IFN-γ mRNA = IFN-γ mRNA in MRL/lpr splenocytes; format: cell-based, mouse
Method: In determining whether TSA can down-regulate IFN-γ mRNA, splenocytes from older, 24-wk MRL/lpr mice were treated with 0 to 500 ng/ml of TSA for 18 hr. […] Compared to splenocytes from 10-wk old mice that had low IFN-γ mRNA (FIG. 8B, lane 1), older mice had higher constitutive levels of IFN-γ transcripts normalized to the housekeeping gene, GAPDH (FIG. 8A, lane 1). […] Maximal inhibition of IFN-γ transcript consistently occurred at 500 ng/ml of TSA.
To establish whether TSA or SAHA down-regulates Con A-induced IFN-γ mRNA expression, splenocytes from 10-wk old mice were stimulated with Con A (10 μg/ml) for 18 hr. From previous kinetic studies, IFN-γ mRNA is maximally expressed when T cells are activated for 18 hr. […] Thus, both TSA and SAHA inhibit IFN-γ. mRNA up-regulation in response to mitogenic stimulation.

IFN-γ protein = IFN-γ protein secretion by MRL/lpr splenocytes; format: cell-based, mouse; conditions: Con A-stimulated splenocytes from younger MRL/lpr mice, 72 hr; p=0.004
Text: The marked inhibition of IFN-γ transcript by these inhibitors prompted us to quantify IFN-γ protein secretion in splenocyte culture supernatants. Over 72 hr, Con A, but not LPS, stimulated splenocytes from younger MRL/lpr mice to secrete a mean (±SEM) 1,563.2±88.3 pg/ml of IFN-γ (FIG. 8D). […] Thus, inhibition of IFN-γ transcription by TSA and SAHA blocks secretion of IFN-γ protein by splenocytes.

[2] = test system: IL-12 p35 and p40 transcripts; assay: IL-12 p35 and p40 transcripts in MRL/lpr splenocytes; format: cell-based, mouse; conditions: splenocytes from 10-wk old MRL/lpr mice preincubated 18 hr, stimulated 6 or 18 hr
Method: In this study, the question of whether TSA down-regulates transcription of both IL-12 p35 and p40 subunit mRNA was investigated. […] Splenocytes were stimulated with LPS and IFN-γ for 6 or 18 hr. […] When splenocytes were preincubated with TSA or SAHA for 18 hr and then stimulated with LPS and IFN-γ IL-12 p35 and p40 transcripts were undetectable (FIGS. 9B–D).

IL-12 p40 protein = IL-12 p40 protein secretion by MRL/lpr splenocytes; format: cell-based, mouse; conditions: splenocytes stimulated with LPS and IFN-γ 24 hr; stimulated control 45.3±9.1; p=0.003
Method: When splenocytes were activated with LPS (100 μg/ml) and IFN-γ 100U/ml) for 24 hr the mean (±SEM) IL-12 p40 secretion was 45.3±9.1 pg/ml.

IL-6 mRNA = IL-6 mRNA in MRL/lpr splenocytes; format: cell-based, mouse; conditions: splenocytes from younger MRL/lpr mice pretreated 18 hr, stimulated 6 or 18 hr
Method: (§2) In determining whether TSA or SAHA down-regulate IL-6 mRNA content, splenocytes from 24-wk MRL/lpr mice were treated with increasing concentrations of TSA for 18 hr. […] TSA decreased IL-6 transcript at a concentration of 100 ng/ml and exerted maximal inhibition at 300 ng/ml. To address whether TSA and SAHA down-regulate LPS- and IFN-γ induced IL-6 transcript levels, splenocytes from younger MRL/lpr mice were treated in the absence or presence of TSA or SAHA for 18 hr before LPS and IFN-γ stimulation for 6 or 18 hr. […] Next, the effect of TSA and SAHA on IL-6 protein secretion in stimulated splenocytes was measured (FIG. 10D). When splenocytes were cultured with LPS and IFN-γ for 72 hr, there was a mean (±SEM) 34.4±7.6 pg/ml of IL-6 protein secretion.

IL-6 protein = IL-6 protein secretion by MRL/lpr splenocytes; format: cell-based, mouse; conditions: splenocytes with LPS and IFN-γ 72 hr; stimulated control 34.4±7.6 pg/ml; p=0.002
Method: as §2

IL-10 mRNA = IL-10 mRNA in MRL/lpr splenocytes; format: cell-based, mouse; conditions: splenocytes from 10-wk old MRL/lpr mice pretreated 18 hr, stimulated 6 or 18 hr
Method: In investigating whether TSA down-regulates IL-10 mRNA, MRL/lpr splenocytes were treated with increasing concentrations of TSA. The heightened, constitutive expression of IL-10 mRNA confirms previous findings (FIGS. 11A & 11B, lane 1). […] To address whether TSA and SAHA down-regulate LPS- and IFN-γ induced IL-10 transcript, splenocytes from 10-wk old MRL/lpr mice were treated in the absence or presence of TSA or SAHA for 18 hr before LPS and IFN-γ stimulation for 6 or 18 hr.

IL-10 protein = IL-10 protein secretion by MRL/lpr splenocytes; format: cell-based, mouse; conditions: MRL/lpr splenocytes stimulated by LPS, Con A, or LPS+IFN-γ, 72 hr
Text: To determine the effect of TSA and SAHA on IL-10 protein secretion, MRL/lpr splenocytes were stimulated with Con A, LPS, or LPS+IFN-γ for 72 hr in the absence or presence of TSA or SAHA. As shown in the FIG. 11D, splenocytes stimulated with Con A, LPS, or LPS+IFN-γ secreted a mean (±SEM) of 31.8±4.5, 32.3±1.9, and 34.8±4.9 pg/ml, respectively, of IL-10 protein.

[3] = test system: acetylated H3 and H4 histones; assay: Immunoblot of acetylated H3 and H4 histones in MRL/lpr splenocytes; format: cell-based, mouse; conditions: 18 hr exposure
Text: One mechanism by which HDIs suppress transcription of cytokine genes in MRL/lpr splenocytes may be by increasing accumulation of acetylated histones which may result in chromatin remodeling. The accumulation of acetylated histones H3 and H4 in HDI-treated splenocytes was quantified to test this hypothesis. FIG. 12 is an immunoblot analysis of the acetylation levels of H3 and H4 histones.

iNOS mRNA = iNOS mRNA induction in MRL/lpr splenocytes; format: cell-based, mouse; conditions: splenocytes from 10 wk old mice, LPS and IFN-γ 24 hr
Text: Excessive production of nitric oxide (NO) is crucial to the initiation and maintenance of glomerulonephritis in MRL/lpr mice. Pharmacologic inhibition of NO synthesis in MRL/lpr mice abrogates disease progression. In examining whether HDIs could suppress inducible nitric oxide synthetase (iNOS), splenocytes from 10 wk old mice were stimulated in the presence or absence of TSA or SAHA with LPS and IFN-γ for 24 hr. […] To determine whether HDIs could suppress nitric oxide secretion by mesangial cells, mesangial cells were stimulated with LPS ([…]) in the presence of vehicle or TSA for 24 hr. The supernatant from the cell culture was assayed for nitric oxide.

HDAC = conditions: statement from cited literature; cited from earlier work

## O=C(CCCCCCC(=O)Nc1ccccc1)NO [SAHA, Suberoylanilide Hydroxamic Acid]
TGF-β1 mRNA
  increase in TGF-β1 transcript: eight-fold
TGF-β1 protein
  rise in the synthesis of TGF-β1 protein: 30%
[1]
  accumulation of acetylated H3 and H4 histones: induced the accumulation
IFN-γ mRNA; MRL/lpr splenocytes, data not shown
  optimal dose in dose titration experiments: 10 µM
IFN-γ mRNA; splenocytes from 10-wk old mice preincubated 18 hr, Con A 10 μg/ml 18 hr, vs vehicle
  Con A-induced up-regulation of IFN-γ transcript: markedly reduced
IFN-γ protein
  IFN-γ protein secretion: did not secrete detectable levels
[2]
  LPS and IFN-γ induced IL-12 p35 and p40 transcripts: undetectable
IL-12 p40 protein
  IL-12 p40 secretion (mean±SEM): 9.1 ± 1.9 pg/mL
IL-6 mRNA
  LPS- and IFN-γ induced IL-6 mRNA: no detectable IL-6 mRNA
IL-6 protein
  IL-6 protein secretion: no detectable IL-6 protein secretion
IL-10 mRNA
  LPS- and IFN-γ induced IL-10 mRNA: no detectable IL-10 mRNA
IL-10 protein
  IL-10 protein secretion: no detectable IL-10 secretion
[3]
  accumulation of acetylated H3 and H4 histones: marked increase
iNOS mRNA
  iNOS mRNA induction: able to suppress iNOS mRNA induction

## CCOC(=O)C(CCCCCC(=O)N(C)C)(CCCCCC(=O)N(C)C)C(=O)OCC [EMBA, Diethyl bix(pentamethylene-N,N-dimethylcarboxamide) malonate]
HDAC
  HDAC inhibition: not effective as HDAC Inhibitors

## mono-MTM-depudecin
HDAC
  HDAC inhibition: do not inhibit HDAC

## CC(=O)NCCCCCCNC(C)=O [HBMA, Hexamethylene bisacetamide]
HDAC
  HDAC inhibition: not effective as HDAC Inhibitors
